From patent publication US11530226B2, “Azepane inhibitors of menin-MLL interaction” (Janssen Pharmaceutica NV, priority 2016, dated 2022)
Read-outs that look alike come from different tables or passages of the source.

Tests used:
[1] = target: T1, terbium chelate-labeled menin / FITC-MBM1 peptide (Menin/MLL) (Homo sapiens, UniProt O00255, T541A); assay: Menin/MLL homogenous time-resolved fluorescence (HTRF) assay; assay type: binding; details: read-out: (2) Menin HTRF assay (IC50 (nM))
T1 construct: Menin (a. a. l-610-6×his tag) was labeled with terbium cryptate as follows
T1 sequence (O00255 with tags, fused parts or gaps T541A): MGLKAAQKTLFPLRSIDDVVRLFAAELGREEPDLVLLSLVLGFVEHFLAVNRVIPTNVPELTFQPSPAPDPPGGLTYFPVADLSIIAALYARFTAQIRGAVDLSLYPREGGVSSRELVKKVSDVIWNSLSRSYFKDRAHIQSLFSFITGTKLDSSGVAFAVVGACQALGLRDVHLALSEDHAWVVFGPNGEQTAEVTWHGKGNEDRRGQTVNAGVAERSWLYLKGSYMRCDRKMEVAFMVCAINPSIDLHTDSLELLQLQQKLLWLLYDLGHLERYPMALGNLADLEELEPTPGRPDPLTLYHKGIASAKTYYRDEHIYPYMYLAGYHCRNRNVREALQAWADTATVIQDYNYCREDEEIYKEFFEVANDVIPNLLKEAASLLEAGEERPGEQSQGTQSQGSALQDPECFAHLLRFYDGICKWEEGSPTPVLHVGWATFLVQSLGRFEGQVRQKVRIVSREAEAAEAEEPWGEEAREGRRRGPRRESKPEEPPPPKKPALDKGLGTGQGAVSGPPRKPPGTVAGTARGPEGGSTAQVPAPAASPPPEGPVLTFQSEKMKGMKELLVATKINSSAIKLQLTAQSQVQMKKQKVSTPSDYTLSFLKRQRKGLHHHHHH
How it was run: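 Terbium cryptate-labeled menin (aa 1-610, 6×His), 100 pM, preincubated 5 min with compound, then 75 nM FITC-MBM1 peptide added for 15 min at ambient temperature. Buffer: 40 mM Tris pH 7.5, 50 mM NaCl, 1 mM DTT, 0.05% Pluronic F-127, 0.5% DMSO. HTRF 520/490 ratio; 11-point threefold titration from 25 μM, IC50 from % inhibition curve.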

[2] = target: T2, menin / FITC-MBM1 peptide (Menin/MLL) (Homo sapiens, UniProt O00255); assay: Menin/MLL fluorescence polarization (FP) assay; assay type: binding; details: read-out: (1) Menin FP assay (IC50 (μM))
T2 sequence (O00255 1-610): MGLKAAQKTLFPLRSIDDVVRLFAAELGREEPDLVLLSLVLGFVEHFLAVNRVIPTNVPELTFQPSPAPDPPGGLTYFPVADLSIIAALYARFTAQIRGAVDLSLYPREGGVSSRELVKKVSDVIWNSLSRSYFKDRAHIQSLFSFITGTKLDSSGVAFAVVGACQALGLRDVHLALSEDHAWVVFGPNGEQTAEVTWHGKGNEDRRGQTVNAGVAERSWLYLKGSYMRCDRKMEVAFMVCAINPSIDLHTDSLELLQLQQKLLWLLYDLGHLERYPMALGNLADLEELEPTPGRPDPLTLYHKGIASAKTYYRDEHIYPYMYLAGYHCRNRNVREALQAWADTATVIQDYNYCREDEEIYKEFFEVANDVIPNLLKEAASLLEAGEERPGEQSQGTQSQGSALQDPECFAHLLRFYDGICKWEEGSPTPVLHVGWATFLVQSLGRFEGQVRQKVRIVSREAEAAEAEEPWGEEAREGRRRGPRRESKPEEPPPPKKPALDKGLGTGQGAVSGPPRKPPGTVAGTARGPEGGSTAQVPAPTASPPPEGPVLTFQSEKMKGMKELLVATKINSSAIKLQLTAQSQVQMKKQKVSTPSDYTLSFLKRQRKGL
Protocol: Pharmacological Part 1) Menin/MLL Fluorescence Polarization Assay
To a non-surface binding, black 384-well microtiter plate was added 50 nL 160× test compound in DMSO and 4 μL 2× menin in assay buffer (40 mM TrisHCl, pH 7.5, 50 mM NaCl, 1 mM DTT and 0.001% Tween 20). After incubation of test compound and menin for 10 min at ambient temperature, 4 μL 2×FITC-MBM1 peptide (FITC-β-alanine-SARWRPPARPGT-NH2) in assay buffer was added, the microtiter plate centrifuged at 1000 rpm for 1 min and the assay mixtures incubated for 15 min at ambient temperature. The relative amount of menin -FITC-MBM1 complex present in an assay mixture is determined by measuring the fluorescence polarization (FP) of the FITC label with a BMG Pherastar plate reader (ex. 485 nm/em. 520 nm) at ambient temperature. The final concentrations of reagents in the binding assay are 100 nM menin, 5 nM FITC-MBM1 peptide and 0.625%>DMSO in assay buffer. Dose-response titrations of test compounds are conducted using an 11 point, three-fold serial dilution scheme, starting at 31 μM.
Compound potencies were determined by first calculating % inhibition at each compound concentration according to equation 1: % inhibition=((HC−LC)−(FPcompound−LC))/(HC−LC))*100 (Eqn 1)
Where LC and HC are the FP values of the assay in the presence or absence of a saturating concentration of a compound that competes with FITC-MBM1 for binding to menin, and FP^compound is the measured FP value in the presence of the test compound. HC and LC FP values represent an average of at least 16 replicates per plate.
Where Bottom and Top are the lower and upper asymptotes of the dose-response curve, respectively, IC50 is the concentration of compound that yields 50% inhibition of signal and h is the Hill coefficient.

[3] = test system: MV-4-1 1 cells (MLL-AF4); assay: Proliferation assay (spheroid-like growth, 8 d, live-cell imaging), MV-4-11; assay type: cell-based, human; details: MV-4-11 cells, absolute IC50 from AUC of confluence, read-out: (3) Spheroid assay MV-4-11 (IC50 (μM))
How it was run: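 Cells seeded in ultra-low attachment wells (1,500 MV-4-11, 300 MOLM14, 750 K562) with compound, 0.3% DMSO, grown 8 d at 37° C. Confluence imaged every four hours; AUC of confluence versus time, relative to vehicle, fitted for absolute IC50.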

[4] = test system: MOLM14 cells (MLL-AF9); assay: Proliferation assay (spheroid-like growth, 8 d, live-cell imaging), MOLM14; assay type: cell-based, human; details: Homo sapiens, MOLM-14, 192 h, absolute IC50 from AUC of confluence, read-out: (3) Spheroid assay MOLM14 (IC50 (μM))
Protocol: The anti-proliferative effect of menin/MLL protein/protein interaction inhibitor test compounds was assessed in human leukemia cell lines. The cell lines MV-4-1 1 and MOLM14 harbor MEL translocations and express the MEL fusion proteins MLL-AF4 and MLL-AF9, respectively, as well as the wildtype protein from the second allele. […] K562 was used as a control cell line containing two MLL wildtype alleles in order to exclude compounds that display general cytotoxic effects.
MV-4-1 1 and MOLM14 were cultured in RPMI-1640 (Sigma Aldrich) supplemented with 10% fetal bovine serum (HyClone), 2 mM L-glutamine (Sigma Aldrich) and 50 μg/ml gentamycin (Gibco). K562 were propagated in RPMI-1640 (Sigma Aldrich) supplemented with 20% fetal bovine serum (HyClone), 2 mM L-glutamine (Sigma Aldrich) and 50 μg/ml gentamycin (Gibco).
In order to assess the anti-proliferative effects, 1,500 MV-4-1 1, 300 MOLM14 or 750 K562 cells were seeded in 200 μl media per well in 96-well round bottom, ultra-low attachment plates (Costar, catalogue number 7007). Cell seeding numbers were chosen based on growth curves to ensure linear growth throughout the experiment. Test compounds were added at different concentrations and the DMSO content was normalized to 0.3%>. Cells were incubated for 8d at 37° C. and 5% C02. Spheroid like growth was monitored in real-time by live-cell imaging (IncuCyteZOOM, Essenbio, 4× objective) acquiring one image every four hours for 8d. Confluence (%) as a measure of spheroid size was determined using an integrated analysis tool.
In order to determine the cumulative effect of the test compounds over time, the area under the curve (AUC) in a plot of confluence against time was calculated. Confluence at the beginning of the experiment (t=0) was used as baseline for the AUC calculation.
Absolute IC50 values were calculated according to the following procedure: % Control=(AUC sample/AUC control)*100 AUC control=mean AUC of control values(cells without compound/DMSO as vehicle control)
A non-linear curve fit was applied using the least squares (ordinary) fit method to the plot of % control versus compound concentration. Based on this, the absolute IC50 value (half maximal inhibitory concentration of the test compound causing an anti-proliferative effect of 50% relative to the vehicle control) was calculated.

| Structure (SMILES) | IC50 [1] [nM] | IC50 [2] [µM] | IC50 ([3]; Homo sapiens, MV4-11, 192 h) [µM] | IC50 [4] [µM] | IC50 [3] [µM] | melting point [°C] |
| --- | --- | --- | --- | --- | --- | --- |
| FC(F)CN[C@@H]1CCCN(c2ncnc3sc(CC(F)(F)F)cc23)CC1 [Compound 5] | 9530 | 6.36 |  |  |  |  |
| FC(F)CN[C@@H]1CCCN(c2ncnc3sc(CC(F)(F)F)cc23)CC1 [Compound 5a] | 8290 | 6.15 |  |  |  |  |
| O=C(NC1CCCN(c2ncnc3sc(CC(F)(F)F)cc23)CC1)C1CC2(CC2)CN1 (stereo not shown) [Compound 10B] | 1320 |  | 5 | 14.2 |  |  |
| Cc1ccc(CNC2CCCN(c3ncnc4sc(CC(F)(F)F)cc34)CC2)cc1 (stereo not shown) [Compound 16] | 21 |  | 0.8 | 4.9 |  |  |

Second part, the compound after the results:

| IC50 [1] [nM] | IC50 [2] [µM] | IC50 ([3]; Homo sapiens, MV4-11, 192 h) [µM] | IC50 [4] [µM] | IC50 [3] [µM] | melting point [°C] | Structure (SMILES) |
| --- | --- | --- | --- | --- | --- | --- |
| 97 |  | 1 | 6.1 |  |  | OCc1ccccc1CNC1CCCN(c2ncnc3sc(CC(F)(F)F)cc23)CC1 (stereo not shown) [Compound 21] |
| 78 |  | 2.5 | 9.9 |  |  | COc1ccccc1CNC1CCCN(c2ncnc3sc(CC(F)(F)F)cc23)CC1 (stereo not shown) [Compound 22] |
| 150 |  | 3.1 | 9.4 |  |  | Cc1cccc(CNC2CCCN(c3ncnc4sc(CC(F)(F)F)cc34)CC2)c1 (stereo not shown) [Compound 23] |
| 348 |  |  |  | 3.7 | 180 | CC1CN(c2ncnc3sc(CC(F)(F)F)cc23)CCCC1NCc1ccccc1 (stereo not shown) [Compound 67B] |
| 282 |  | 4.4 | 7.7 |  |  | CC1CCN(c2ncnc3sc(CC(F)(F)F)cc23)CCC1NCc1ccccc1 (stereo not shown) [Compound 68C] |
